# Laboratory results reported in ChEMBL document CHEMBL4715849, “Recent Progress in the Discovery of Antifungal Agents Targeting the Cell Wall” (J Med Chem, 2020).
# Square brackets hold non-standard residues; d marks the D form. Peptide text beside a SMILES is read from it. * marks the point of attachment. Fumaryl(OMe) = COC(=O)/C=C/C(=O)*; Dap = NC[C@H](N)C(=O)O
# How the values were obtained:
# Candida albicans [1] = experiment: Antifungal activity against Candida albicans incubated for 24 hrs by turbidimetric method; assay type: functional
# Candida albicans [2] = experiment: Antifungal activity against Candida albicans ATCC 262 incubated for 24 hrs by turbidimetric method; assay type: functional
# Pichia kudriavzevii = experiment: Antifungal activity against Candida krusei K1153 by agar incorporation method; assay type: functional
# Candida tropicalis [3] = experiment: Antifungal activity against Candida tropicalis K1155 by agar incorporation method; assay type: functional
# Cyberlindnera jadinii = experiment: Antifungal activity against Candida utilis K482 by agar incorporation method; assay type: functional; details: Williopsis jadinii
# Candida albicans [4] = experiment: Antifungal activity against Candida albicans K1082 by agar incorporation method; assay type: functional
# Candida tropicalis [5] = experiment: Antifungal activity against Candida tropicalis K337 by agar incorporation method; assay type: functional
# Candida parapsilosis [6] = experiment: Antifungal activity against Candida parapsilosis K332 by agar incorporation method; assay type: functional; details: Lodderomyces parapsilosis
# Candida albicans [7] = experiment: Antifungal activity against Candida albicans K1133 by agar incorporation method; assay type: functional
# [8] = test system: Meyerozyma guilliermondii; experiment: Antifungal activity against Candida guilliermondii K334 by agar incorporation method; assay type: functional
# Candida albicans [9] = experiment: Antifungal activity against Candida albicans K341 by agar incorporation method; assay type: functional
# Candida parapsilosis [10] = experiment: Antifungal activity against Candida parapsilosis K1154 by agar incorporation method; assay type: functional; details: Lodderomyces parapsilosis
# Candida albicans [11] = experiment: Antifungal activity against Candida albicans K335 by agar incorporation method; assay type: functional
# Candida albicans [12] = experiment: Antifungal activity against Candida albicans AMB-25 incubated for 48 hrs by serial two-fold dilution method; assay type: functional
# [13] = Inhibition of Candida albicans IFO1060 1,3-beta-D-glucan synthase
# Candida albicans [14] = experiment: Antifungal activity against Candida albicans infected in mouse assessed as protection against fungus-induced lethal infection; assay type: functional; details: read-out: PD50
# Aspergillus fumigatus = experiment: Antifungal activity against Aspergillus fumigatus CF1083 infected in iv dosed mouse model of pulmonary aspergillosis administered once daily for 4 days and measured on day 14; assay type: functional; details: 336 h, time 14 day
# [15] = Inhibition of fungi 1,3-beta-D-glucan synthase
# Candida parapsilosis [16] = experiment: Antifungal activity against Candida parapsilosis ATCC22019 by CLSI method; assay type: functional; details: Lodderomyces parapsilosis
# Candida albicans [17] = experiment: Antifungal activity against Candida albicans Ca2323/ORF6.945 by CLSI method; assay type: functional
# Candida albicans [18] = experiment: Antifungal activity against Candida albicans Ca1055 by CLSI method; assay type: functional
smiles,measurement,setting,value
COC(=O)/C=C/C(=O)NC[C@H](NC(=O)[C@H](CCSC)NC(=O)[C@H](CCSC)NC(=O)[C@@H](N)CNC(=O)/C=C/C(=O)OC)C(=O)O (H-[Dap](Fumaryl(OMe))MM[Dap](Fumaryl(OMe))-OH),MIC,Candida albicans [1],0.025 µg/mL
same,MIC,Candida albicans [2],0.025 µg/mL
CCCCC/C=C/C=C/C(=O)OC[C@H]1O[C@@H](O[C@H]2[C@H](OC(=O)/C=C/C=C/C[C@H](O)/C(C)=C/C=C/CC[C@@H](C)CC)[C@@H](O)[C@@]3(OCc4cc(O)cc(O)c43)O[C@@H]2CO)[C@H](O)[C@@H](O)[C@H]1O,MIC,Pichia kudriavzevii,0.1 µg/mL
same,MIC,Candida tropicalis [3],0.1 µg/mL
same,MIC,Cyberlindnera jadinii,0.1 µg/mL
same,MIC,Candida albicans [4],0.1 µg/mL
same,MIC,Candida tropicalis [5],0.1 µg/mL
same,MIC,Candida parapsilosis [6],0.1 µg/mL
same,MIC,Candida albicans [7],0.1 µg/mL
same,MIC,[8],0.1 µg/mL
same,MIC,Candida albicans [9],0.1 µg/mL
same,MIC,Candida parapsilosis [10],0.1 µg/mL
same,MIC,Candida albicans [11],0.1 µg/mL
COC(=O)/C=C/C(=O)NC[C@H](NC(=O)[C@H](N)C(C)C)C(=O)O,MIC,Candida albicans [12],0.4 µg/mL
CCCC(NC(=O)[C@@H](N)CNC(=O)/C=C/C(=O)OC)C(=O)O (some centres not stated),MIC,Candida albicans [12],0.4 µg/mL
COC(=O)/C=C/C(=O)NC[C@H](NC(=O)[C@H](N)CCSC)C(=O)O,MIC,Candida albicans [12],0.4 µg/mL
CCC[C@H](NC(=O)[C@H](CNC(=O)/C=C/C(=O)OC)NC(=O)[C@@H](N)CCC)C(=O)O,MIC,Candida albicans [1],0.025 µg/mL
same,MIC,Candida albicans [2],0.05 µg/mL
COC(=O)/C=C/C(=O)NC[C@H](N)C(=O)N[C@H](C(=O)O)C(C)C,MIC,Candida albicans [12],0.4 µg/mL
CCCCCCCCCCCCC[C@H]1OC(=O)[C@H](CCCNC(=O)[C@H](N)CCCN)NC(=O)[C@@H]([C@@H](C)O)NC(=O)CNC(=O)[C@H]([C@H](O)CC(N)=O)NC(=O)[C@H]2[C@@H](O)CCN2C(=O)[C@H]([C@@H](C)O)NC(=O)[C@@H]2C[C@@H](O)CN2C(=O)[C@H](C(C)C)NC(=O)[C@H](Cc2ccc(O)cc2)NC(=O)[C@@H](C)NC(=O)[C@H]([C@@H](C)O)NC1=O,IC50,[13],5 nM
COC(=O)/C=C/C(=O)NC[C@H](N)C(=O)N[C@@H](CC(C)C)C(=O)O,MIC,Candida albicans [12],0.4 µg/mL
COc1cc(O)c2c(c1)C(=O)c1c(cc3c(c1O)-c1c(cc(C)c(C(=O)N[C@H](CO)C(=O)O)c1O)[C@H](O[C@@H]1O[C@H](C)[C@H](O)[C@H](O[C@@H]4OC[C@@H](O)[C@H](O)[C@H]4O)[C@H]1O)[C@H]3O)C2=O,ED50,Candida albicans [14],33 mg/kg
CCC[C@H](NC(=O)[C@@H](N)CCCCN)C(=O)N[C@@H](CNC(=O)/C=C/C(=O)OC)C(=O)O,MIC,Candida albicans [1],0.025 µg/mL
same,MIC,Candida albicans [2],0.025 µg/mL
COC(=O)/C=C/C(=O)NC[C@H](NC(=O)[C@H](CCSC)NC(=O)[C@@H](N)CNC(=O)/C=C/C(=O)OC)C(=O)O,MIC,Candida albicans [1],0.025 µg/mL
same,MIC,Candida albicans [2],0.025 µg/mL
COC(=O)/C=C/C(=O)NC[C@H](N)C(=O)N[C@@H](C)C(=O)O,MIC,Candida albicans [12],0.4 µg/mL
CCCCCCCCCCCCC[C@H]1OC(=O)[C@H](CCCN(CCCN)C(=O)[C@@H](CCCN)N(CCN)CCN)NC(=O)[C@@H]([C@@H](C)O)NC(=O)CNC(=O)[C@H]([C@H](O)CC(N)=O)NC(=O)[C@H]2[C@@H](O)CCN2C(=O)[C@H]([C@@H](C)O)NC(=O)[C@@H]2C[C@@H](O)CN2C(=O)[C@H](C(C)C)NC(=O)[C@H](Cc2ccc(O)cc2)NC(=O)[C@@H](C)NC(=O)[C@H]([C@@H](C)O)NC1=O,ED50,Aspergillus fumigatus,5.2 mg/kg
same,IC50,[15],0.28 nM
CCCC(C)Oc1cccc(NC(=O)c2cccnc2)c1 (configuration not stated),MIC,Candida parapsilosis [16],8 µg/mL
same,MIC,Candida albicans [17],4 µg/mL
same,MIC,Candida albicans [18],4 µg/mL
CCCCCCCCCCCCC[C@H]1OC(=O)[C@H](CCCN(CCN)C(=O)[C@H](CCCN)N(CCN)CCN)NC(=O)[C@@H]([C@@H](C)O)NC(=O)CNC(=O)[C@H]([C@H](O)CC(N)=O)NC(=O)[C@H]2[C@@H](O)CCN2C(=O)[C@H]([C@@H](C)O)NC(=O)[C@@H]2C[C@@H](O)CN2C(=O)[C@H](C(C)C)NC(=O)[C@H](Cc2ccc(O)cc2)NC(=O)[C@@H](C)NC(=O)[C@H]([C@@H](C)O)NC1=O,ED50,Aspergillus fumigatus,5.2 mg/kg
same,IC50,[15],0.2 nM
COC(=O)/C=C/C(=O)NC[C@H](NC(=O)[C@H](C)NC(=O)[C@@H](N)CCSC)C(N)=O,MIC,Candida albicans [1],0.025 µg/mL
same,MIC,Candida albicans [2],0.025 µg/mL
COC(=O)/C=C/C(=O)NC[C@H](NC(=O)[C@H](CCSC)NC(=O)[C@H](CCSC)NC(=O)[C@H](CCSC)NC(=O)[C@@H](N)CCSC)C(=O)O (H-MMMM[Dap](Fumaryl(OMe))-OH),MIC,Candida albicans [1],0.025 µg/mL
same,MIC,Candida albicans [2],0.025 µg/mL
COC(=O)/C=C/C(=O)NC[C@H](N)C(=O)N[C@@H](CCSC)C(=O)N[C@@H](C)C(=O)O,MIC,Candida albicans [1],0.025 µg/mL
same,MIC,Candida albicans [2],0.025 µg/mL
COC(=O)/C=C/C(=O)NC[C@H](NC(=O)[C@@H](N)CCSC)C(=O)N[C@@H](CCSC)C(=O)O,MIC,Candida albicans [1],0.025 µg/mL
same,MIC,Candida albicans [2],0.025 µg/mL
